Measurements taken from patent publication US4786643A, “Treatment of migraine, cluster headaches and trigeminal neuralgia” (Beecham Group p.l.c., priority 1985, dated 1988).

Columns and labels:
Assay type in all cases: in vivo
[1] = test system: Radiation Induced Nausea and Vomiting; assay: Inhibition of Radiation Induced Nausea and Vomiting (X-ray, ferret); settings: for No. of animals completely protected/No. of animals used: 2 to 4 minutes before irradiation; for Latency period, Group Mean (±s.e.m.): taken as 120 minutes in animals completely protected, vehicle 19.4 (±1.1); for No. of emetic episodes, Group Mean (±s.e.m.): vehicle 28.8 (±1.3)
Description: 3. Inhibition of Radiation Induced Nausea and Vomiting.
Ferrets with surgically implanted indwelling venous cannulae were restrained in a purposely constructed perspex box, and exposed to ionising radiation from an X-ray source. The X-ray source (Machlett, Model OEG-50, Tungsten Anode) was approximately 25 cm from the upper surface of the animal, and was operated at 50 Kv and 20 mA through a 1 mm beryllium window and 0.18 mm aluminium filtration. The whole body of each animal was irradiated for 10.4 minutes at a dose rate of 300 rad/minute. At the completion of irradiation animals were put back in their pens and observed for at least 120 minutes. The time from the start of irradiation to the first emetio episode (latency period), and the number of emetic episodes were recorded. […] The test compound was injected intravenously 2 to 4 minutes before the start of irradiation.

[2] = test system: arrhythmias after coronary ligation; assay: Antiarrhythmic Activity, dog coronary ligation model; settings: for reduction of ectopic beats on day 2 (max. effects) / antagonism of arrhythmias on day 2 (max. effects): 48 h after coronary ligation; for reduction of ectopic beats on day 1 (max. effects) / antagonism of arrhythmias on day 2 (max. effects): 2. dog
Method: 4. Antiarrhythmic Activity
The compound of Example 9 was tested for antiarrhythmic activity in the dog coronary ligation model (method: Harris, A., Circulation Res. 1, 1318-1328, 1950).

[3] = test system: von Bezold-Jarisch reflex evoked by 5HT; assay: Antagonism of the von Bezold-Jarisch reflex evoked by 5HT in the anaesthetised rat; settings: iv, anaesthetised male rats, i.v., 5-HT 6-20 μg/kg i.v., heart rate, read-out: ED50 (reduction of the 5HT-evoked response to 50% of the control response)
Method: 1. Antagonism of the von Bezold-Jarisch reflex
The compounds were evaluated for antagonism of the von Bezold-Jarisch reflex evoked by 5HT in the anaesthetised rat according to the following method:
Male rats 250-350 g, were anaesthetised with urethane (1.25 g/kg intraperitoneally) and blood pressure and heart rate recorded as described by Fozard J. R. et al., J. Cardiovasc. Pharmacol. 2, 229-245 (1980). A submaximal dose of 5-HT (6-20 μg/kg) was given repeatedly by the intravenous route and changes in heart rate quantified. Test Compounds were given intravenously and the concentration required to reduce the 5HT-evoked response to 50% of the control response (ED50) was then determined.

[4] = test system: emetic response (cisplatin); assay: Inhibition of Chemotherapy Induced Nausea and Vomiting (cisplatin, ferret); settings: administered twice, cisplatin 10 mg/kg i.v., 5 hours
Description: 2. Inhibition of Chemotherapy Induced Nausea and Vomiting
Adult male ferrets (initial body weight 1.3-1.8 kg) were individually housed, fed once daily (200 g Chum Puppy Food plus 50 g Lab Diet A) and were supplied with water ad libitum. Additionally, each animal was given 1/2 pint of milk daily during an acclimatization period.
To facilitate intravenous administration of drugs, a chronic indwelling catheter was surgically implanted into the jugular vein using a modification of the technique described by Florczyk and Schurig, 1981 (Pharmacol. Biochem. Behav., 14, 255-257). Prior to surgery each animal was sedated with ketamine hydrochloride (40 mg/animal intramuscularly) and anaesthetised with a halothane-N2 O--O2 mixture. A four day recovery period was allowed before commencement of an experiment.
For each group of animals, a preliminary study was carried out to establish an intravenous dose level of cisplatin which would give a consistent and reproducible emetic response. The appropriate dose of test compound was administered intravenously twice to each animal; 30 minutes before and 45 minutes after dosing with cisplatin. Running controls received vehicle and cisplatin only.
A single emetic response commenced when an animal assumed a characterrc posture with retching and was concluded when either vomitus was expelled or was present in the mouth as evidenced by a chewing movement.
All solutions were prepared in water for injection B. P. Cisplatin was prepared from vials of Neoplatin for injection (Mead Johnson; dose volume of […]).

COc1cc(N)c(Cl)cc1C(=O)NC1CCN2CCCC1C2 (racemic) [Example 9, (±)4-amino-5-chloro-2-methoxy-N-(4[1-azabicyclo-3,3,1]-nonyl])-benzamide]
No. of animals completely protected/No. of animals used ([1]; 0.25 mg/kg i.v.): 1/4 | Latency period, Group Mean (±s.e.m.) ([1]; 0.25 mg/kg i.v., P < 0.05): 64.0 (±18.7) | No. of emetic episodes, Group Mean (±s.e.m.) ([1]; 0.25 mg/kg i.v., P < 0.05): 7.8 (±3.3) | No. of animals completely protected/No. of animals used ([1]; 1.25 mg/kg i.v.): 2/5 | Latency period, Group Mean (±s.e.m.) ([1]; 1.25 mg/kg i.v., P < 0.01): 79.2 (±16.7) | No. of emetic episodes, Group Mean (±s.e.m.) ([1]; 1.25 mg/kg i.v., P < 0.01): 1.2 (±0.6) | effect on day 1-arrhythmias (max. effects) ([2]; 1. dog, 24 h after coronary ligation, 0.5-3.0 mg/kg): no effect | reduction of ectopic beats on day 2 (max. effects) ([2]; 1. dog, 2.0 mg/kg): 41% | reduction of ectopic beats on day 2 (max. effects) ([2]; 1. dog, 3.0 mg/kg): 76% | reduction of ectopic beats on day 1 (max. effects) ([2]; 24 h after coronary ligation, 20 mg/kg (so in the source)): 69% | reduction of ectopic beats on day 1 (max. effects) ([2]; 24 h after coronary ligation, 1,0 mg/kg): 63% | reduction of ectopic beats on day 1 (max. effects) ([2]; 24 h after coronary ligation, 3,0 mg/kg): 82% | antagonism of arrhythmias on day 2 (max. effects) ([2]; 0.5 mg/kg): 89% | antagonism of arrhythmias on day 2 (max. effects) ([2]; 1.0 mg/kg): 100% | ED50 [3]: 3.3 µg/kg | No. of animals completely protected/No. of animals used ([4]; 0.65 mg/kg i.v.): 1/6 | No. of animals completely protected/No. of animals used ([4]; 1.25 mg/kg i.v.): 4/6 | No. of animals completely protected/No. of animals used ([4]; 2.5 mg/kg i.v.): 3/6
